Results as given in USRE42890E1, “Furazanobenzimidazoles” (Basilea Pharmaceutica AG, priority 2003, dated 2011).
Like-named read-outs stand apart in the source and are kept apart here.

Legend:
[1] = test system: adherent cells or suspension cells; test: Hoechst 33342 nuclear staining (fraction of apoptotic nuclei); type: cell-based; parameters: key: 0 relating to no activity; 1 relating to weak activity comprising less than 70% of the cells; score 2 relating to strong activity comprising more than 70% of the cells
[2] = test system: HeLa; test: MTS proliferation assay, HeLa; type: cell-based, human; details: 72 h incubation, read-out: MTS proliferation assay IC 50 HeLa
In short: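 Seed cells (1.5*10^3-10^4/well) 24 h ahead; add compound, final 10/3/1/0.3 μM; incubate 72 h, 37 °C, 7.5% CO2; MTS 3 h; read A492.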

[3] = test system: Jily; test: MTS proliferation assay, Jily; type: cell-based; details: 72 h incubation, read-out: MTS proliferation assay IC 50 Jily
Procedure: Cell lines are cultured in RPMI-1640 tissue culture medium containing either 5% or 10% fetal calf serum, 0.05 mM 2-mercaptoethanol, 2 mM glutamine and penicillin/streptomycin 50 μg/ml (complete medium) (Sigma, Buchs, Switzerland). General growth conditions are 37° C. and 7.5% CO2.
The assay is performed in 96 well tissue culture plates. The cells (range: 1.5*10^3-10^4) are seeded out in 80 μl complete medium 24 h prior to compound treatment. The test compounds are added in 20 μl complete medium containing max 5% DMSO. The final compound concentrations in the assays are 10 μM, 3 μM, 1 μM and 0.3 μM, respectively. The assay plates are incubated for 72 h at culture conditions. The MTS reagent is prepared according to the manufacturer's protocol (Promega G1111). 20 μl MTS reagent are added to each well, the assay plates are quickly spun and incubated for another 3 h at culture conditions. Subsequently, the plates are shortly shaked and absorption measured with a microplate-reader at 492 nm.

| SMILES | Hoechst 33342 nuclear staining score ([1]; H460, conc 0.01 μm) | Hoechst 33342 nuclear staining score ([1]; H460, conc 0.1 μm) | Hoechst 33342 nuclear staining score ([1]; H460, conc 1 μm) | Hoechst 33342 nuclear staining score ([1]; HeLa, conc 0.01 μm) | Hoechst 33342 nuclear staining score ([1]; HeLa, conc 0.1 μm) | Hoechst 33342 nuclear staining score ([1]; HeLa, conc 1 μm) | Hoechst 33342 nuclear staining score ([1]; Jily, conc 0.01 μm) | Hoechst 33342 nuclear staining score ([1]; Jily, conc 0.1 μm) | Hoechst 33342 nuclear staining score ([1]; Jily, conc 1 μm) | Hoechst 33342 nuclear staining score ([1]; Jurkat, conc 0.01 μm) | Hoechst 33342 nuclear staining score ([1]; Jurkat, conc 0.1 μm) | Hoechst 33342 nuclear staining score ([1]; Jurkat, conc 1 μm) | Hoechst 33342 nuclear staining score ([1]; MRC5, conc 0.01 μm) | Hoechst 33342 nuclear staining score ([1]; MRC5, conc 0.1 μm) | Hoechst 33342 nuclear staining score ([1]; MRC5, conc 1 μm) | Hoechst 33342 nuclear staining score ([1]; PBLs, conc 0.01 μm) | Hoechst 33342 nuclear staining score ([1]; PBLs, conc 0.1 μm) | Hoechst 33342 nuclear staining score ([1]; PBLs, conc 1 μm) | IC50 ([2]; Homo sapiens) [nM] | IC50 [3] [nM] | other results |
| --- | --- | --- | --- | --- | --- | --- | --- | --- | --- | --- | --- | --- | --- | --- | --- | --- | --- | --- | --- | --- | --- |
| O=C(Cn1c(-c2nonc2NCCCO)nc2ccccc21)c1ccc(Cl)cc1 [Example 11, 4-[1-(4-Chlorophenacyl)-1H-benzimidazol-2-yl]-furazan-3-yl-N-(3-hydroxypropyl)-amine] | 0 | 0 | 2 (score 2 relating to strong activity comprising more than 70% of the cells) | 0 | 1 (1 relating to weak activity comprising less than 70% of the cells) | 2 (score 2 relating to strong activity comprising more than 70% of the cells) | 0 | 2 (score 2 relating to strong activity comprising more than 70% of the cells) | 2 (score 2 relating to strong activity comprising more than 70% of the cells) | 0 | 2 (score 2 relating to strong activity comprising more than 70% of the cells) | 2 (score 2 relating to strong activity comprising more than 70% of the cells) | 0 | 1 (1 relating to weak activity comprising less than 70% of the cells) | 2 (score 2 relating to strong activity comprising more than 70% of the cells) | 0 | 0 | 0 | 100 to 1000 | 10 to 100 |  |
| Cc1ccc(C(=O)Cn2c(-c3nonc3NCCCO)nc3ccccc32)cc1C [Example 52] | 0 | 1 (1 relating to weak activity comprising less than 70% of the cells) | 2 (score 2 relating to strong activity comprising more than 70% of the cells) | 0 | 2 (score 2 relating to strong activity comprising more than 70% of the cells) | 2 (score 2 relating to strong activity comprising more than 70% of the cells) | 0 | 2 (score 2 relating to strong activity comprising more than 70% of the cells) | 2 (score 2 relating to strong activity comprising more than 70% of the cells) | 0 | 2 (score 2 relating to strong activity comprising more than 70% of the cells) | 2 (score 2 relating to strong activity comprising more than 70% of the cells) | 0 | 2 (score 2 relating to strong activity comprising more than 70% of the cells) | 2 (score 2 relating to strong activity comprising more than 70% of the cells) | 0 | 0 | 0 |  | 10 to 100 | IC50 [2]: 10 to 100 nM |
| Cc1ccc(C(=O)Cn2c(-c3nonc3N)nc3ccccc32)cc1C [Example 53] | 0 | 2 (score 2 relating to strong activity comprising more than 70% of the cells) | 2 (score 2 relating to strong activity comprising more than 70% of the cells) | 0 | 2 (score 2 relating to strong activity comprising more than 70% of the cells) | 2 (score 2 relating to strong activity comprising more than 70% of the cells) | 0 | 2 (score 2 relating to strong activity comprising more than 70% of the cells) | 2 (score 2 relating to strong activity comprising more than 70% of the cells) | 2 (score 2 relating to strong activity comprising more than 70% of the cells) | 2 (score 2 relating to strong activity comprising more than 70% of the cells) | 2 (score 2 relating to strong activity comprising more than 70% of the cells) | 1 (1 relating to weak activity comprising less than 70% of the cells) | 2 (score 2 relating to strong activity comprising more than 70% of the cells) | 2 (score 2 relating to strong activity comprising more than 70% of the cells) | 0 | 0 | 0 |  | 10 to 100 | IC50 [2]: 10 to 100 nM |
| Cc1ccc(OCn2c(-c3nonc3NCCC#N)nc3ccccc32)cc1C [Example 10, 4-[1-(3,4-Dimethylphenoxymethyl)-1H-benzimidazol-2-yl]-furazan-3-yl-N-(2-cyanoethyl)-amine] | 0 | 1 (1 relating to weak activity comprising less than 70% of the cells) | 2 (score 2 relating to strong activity comprising more than 70% of the cells) | 0 | 0 | 2 (score 2 relating to strong activity comprising more than 70% of the cells) | 0 | 1 (1 relating to weak activity comprising less than 70% of the cells) | 2 (score 2 relating to strong activity comprising more than 70% of the cells) | 0 | 2 (score 2 relating to strong activity comprising more than 70% of the cells) | 2 (score 2 relating to strong activity comprising more than 70% of the cells) | 0 | 0 | 1 (1 relating to weak activity comprising less than 70% of the cells) | 0 | 0 | 0 | 100 to 1000 | 10 to 100 |  |
